Where a name gives a salt, the structure may show the parent alone.
Experiments:
ApoE promoter = ApoE promoter activity assay (luciferase, ME.1/ME.2); format: cell-based, human; details: 1 μM
Source text: FIG. 11. LXRβ Activation Suppresses Melanoma Invasion and Endothelial Recruitment by Transcriptionally Enhancing Melanoma-Cell ApoE Expression. […] Scale bar, 50 μm.
The ApoE promoter, consisting of a sequence spanning 980 base pairs upstream and 93 base pairs downstream of the ApoEgene, was cloned into a pGL3-Basic vector (E1751, Promega Corporation, Madison, Wis.) upstream of the firefly luciferase gene using NheI and SacI restriction enzymes. Then, multi-enhancer elements 1 (ME.1) and 2 (ME.2) were cloned directly upstream of the ApoE promoter using MluI and […] restriction enzymes. To assess ApoE promoter- and ME.1/ME.2-driven transcriptional activation by LXR agonists, 5×10^4 MeWo cells were seeded into a 24-well plate. […] To assess transcriptional activation by LXRα or LXRβ, 5×10^4 MeWo cells expressing a control shRNA or shRNA targeting LXRα or LXRβ were seeded into a 24-well plate. […] After 24 hours, cells were lysed, and cell lysate was analyzed for firefly and renilla luciferase activity using the Dual Luciferase Assay System (E1960, Promega) and a Bio-Tek Synergy NEO Microplate Reader. Firefly luciferase signal was normalized to renilla luciferase signal and all data are expressed relative to the luciferase activity ratio measured in the DMSO-treated control cells.

[1] = tested on: DTIC-resistant MeWo human melanoma cells; details: oral, diet 100 mg/kg
Method: Tumor growth was measured twice a week.

[2] = tested on: B16F10 mouse melanoma cells; assay: B16F10 tumor growth and metastasis with LXR or ApoE knockdown or knockout; format: in vivo
Method: FIG. 12. Therapeutic Delivery of LXR Agonists Upregulates Melanoma-Derived and Systemic ApoE Expression. (A-B) ApoE expression levels, quantified by qRT-PCR, in subcutaneous tumors formed by B16F10 mouse melanoma cells injected into C57BL/6 mice. After 5-mm^3 tumor formation, mice were fed a control diet or diet containing GW3965 (20 mg/kg) (A) or T0901317 (20 mg/kg) (B) for 7 days. n=3-4. (C-E) ApoEtranscript expression in primary tumors (C), lung metastases (D), and brain metastases (E) formed by MeWo human melanoma cells grafted onto NOD Scid mice that were administered control chow or chow supplemented with GW3965 (20 mg/kg). ApoE levels were assessed on day 35 (C), day 153 (D), and day 34 (E) post-injection of the cancer cells. n=3-5. (F) Relative expression levels of LXRα, LXRβ, and ApoE were determined by qRT-PCR in B16F10 mouse melanoma cells expressing a control hairpin or an shRNA targeting mouse LXRα (sh_mLXRα), mouse LXRβ (sh_mLXRβ), or mouse ApoE (sh_mApoE). (G-H) ApoE (G) and ABCA1(H) mRNA levels, measured by qRT-PCR, in B16F10 cells expressing a control shRNA or shRNAs targeting mouse LXRβ or mouse ApoE. The cells were treated with DMSO or GW3965 at 5 μM for 48 hours. n=3. (I) ABCA1 mRNA levels, measured by qRT-PCR, in systemic white blood cells extracted from LXRα −/− or LXRβ −/− mice fed a control diet or a GW3965-supplemented diet (20 mg/kg) for 10 days. n=3-4. (J) Relative expression of ApoE mRNA, expressed as the frequency of SAGE tags, in mouse skin and lung tissues was determined using the public mSAGE Expression Matrix database available through the NCI-funded Cancer Genome Anatomy Project (CGAP). (K) Relative expression of ApoE mRNA, determined by qRT-PCR, in MeWo melanoma cells dissociated from lung metastatic nodules (LM2) or primary tumors relative to control unselected MeWo parental cells. n=3.
FIG. 13. LXRβ Agonism Suppresses Melanoma Tumor Growth and Metastasis by Inducing Melanoma-Derived and Systemic ApoE Expression. […] (B) Quantification of ApoE protein expression based on western blots shown in (A). […] Representative tumor images extracted at the end point are shown in the right panel. n=6-18. (E) ApoE transcript levels, quantified by qRT-PCR, in systemic white blood cells extracted from LXRα −/− or LXRβ −/− mice fed a control diet or a GW3965-supplemented diet (20 mg/kg) for 10 days. n=3-5. (F) Subcutaneous tumor growth by 5×10^4 B16F10 control cells or B16F10 cells expressing an shRNA targeting mouse ApoE (sh_mApoE) in C57BL/6-WT or ApoE−/− mice. […] Representative images of tumors extracted at the final day of measurement (d12) are shown on the right. n=8-18. (G) Lung colonization by 5×10^4 B16F10 cells transduced with a control shRNA or sh_mApoE and intravenously injected into C57BL/6-WT or ApoE−/− mice. […] Lung metastasis was quantified on d22 by bioluminescence imaging. Representative lungs extracted at the end point (d22) are shown in the right panel. n=5-10. (H) ApoE protein expression, determined by blinded immunohistochemical analysis, in non-metastatic (n=39) and metastatic (n=34) primary melanoma skin lesion samples obtained from patients at MSKCC. The fraction of ApoE-positively staining cell area was quantified as a percentage of total tumor area.

[3] = in vivo; cited from earlier work

O=C(O)Cc1cccc(OCCCN(Cc2cccc(C(F)(F)F)c2Cl)CC(c2ccccc2)c2ccccc2)c1 [GW3965 108, 3-[3-[N-(2-Chloro-3-trifluoromethylbenzyl)-(2,2-diphenylethyl)amino]propyloxy] phenylacetic acid hydrochloride]
ability to upregulate ApoE transcription and protein expression upon melanoma cell depletion of LXRβ, but not LXRα (ApoE promoter): abrogated | growth of in vivo-derived DTIC-resistant human melanoma tumors (MeWo) [1]: strongly inhibited | metastasis suppression upon genetic inactivation of ApoE ([2]; ApoE−/− mice, diet 20 mg/kg): only partially prevented | suppressing tumor growth in mice genetically inactivated for ApoE ([2]; ApoE−/− mice, diet 20 mg/kg): completely ineffective | induction of ApoE expression upon knockdown of mouse melanoma-cell LXRβ ([2]; B16F10 cells, 5 μM, 48 hours): abrogated | inhibition of metastasis with both melanoma-cell ApoE knockdown and genetic inactivation of systemic ApoE ([2]; diet 20 mg/kg): completely blocked | suppression of tumor growth with melanoma-cell LXRβ knockdown ([2]; diet 20 mg/kg, 7 days): unable to prevent | tumor growth inhibition upon depletion of melanoma-cell ApoE ([2]; diet 20 mg/kg, 7 days): did not prevent | metastasis-suppressive effect upon knockdown of melanoma-cell ApoE ([2]; lung colonization, diet 20 mg/kg): partially prevented | upregulation of systemic ApoE expression in LXR null mice ([2]; white blood cells, diet 20 mg/kg, 10 days): abrogated in LXRβ −/−, but not in LXRα −/− mice | crossing of the blood brain barrier [3]: can efficiently cross the blood brain barrier
